Assay results published in patent US12396996B2, “Compounds, pharmaceutical compositions, and methods of their use in reversing cancer chemoresistance” (priority 2019, dated 2025).

Tested on: HMLE-SNAIL spheroids
Experiment: 3-D tumor spheroid assay (Sytox/DAPI staining)
Type: cell-based, human
Settings: Sytox staining
Text: FIGS. 1F-1I show the results of a 3-D tumor spheroid assay formed by the chemotherapy-resistant breast cancer cell line, HMLE-SNAIL. […] Tumor spheroids are a model of real in vivo tumors, as they form a 3-D cell mass in which the hypoxic and often nutrient depleted microenvironment at the center of the tumor is enriched with mesenchymal, chemotherapy-resistant TIC cells. […] By staining spheroids with Sytox, which stains dead cells green, and DAPI, which stains the nuclei of all cells (living or dead), total fraction of dead cells is calculated. Also, the location of dead cells within the sphere is visualized with Sytox (green) staining. The results of FIGS. 1F-1I indicate that chaetocin a selective and potent killer of inner cells of the spheroids, enriched with mesenchymal, chemotherapy-resistant TIC cells, compared to other compounds tested. FIGS. 1J-1K show the results of a tumorsphere assay performed with TICs grown on serum-free, non-adherent culture conditions. […] The results of FIGS. 1J-1K indicate that chaetocin is effective in eliminating TICs in a dose dependent-manner.
To determine whether chaetocin affects TIC death in a tumor-like environment, 3-D tumor spheroid assays were performed in the presence or absence of chaetocin. Tumor spheroids are a model of a real tumor, as they form a 3-D cell mass similar to tumors in vivo. The local microenvironment of a spheroid recapitulates many of the in vivo properties of tumor. Importantly, the hypoxic and often nutrient depleted microenvironment at the center of the tumor is favorable for converting epithelial, non-TIC, chemotherapy-sensitive cancer cells into mesenchymal, TIC-rich, chemotherapy-resistant cells. […] Pharmacological agents were added and cell viability was calculated by staining cells with Sytox, which stains dead cells green, and DAPI, which stains the nuclei of all cells (living or dead). to provide the total cell number. Using this method, the total fraction of dead cells was calculated and compared between different drug conditions. More importantly, the location of dead cells within the sphere is visualized with Sytox (green) staining. FIGS. 1G-1I show fluorescence images of tumor spheroids under control conditions (no treatment; FIG. 1G), under treatment with various experimental chemotherapeutic agents (Y-27632, LY-450139, and IWP-L6 (Wnt); FIG. 1H), and with chaetocin treatment (FIG. 1I). […] This family of kinases are thought to be important for survival of TIC cells. IWP-L6 is an inhibitor of Wnt pathway—a pathway important for TIC cell survival and formation. LY-450139 is a NOTCH pathway inhibitor. NOTCH is also important for TIC cell viability and survival. […]

Row | SMILES | location of dead cells within spheroid
1 | C[C@@H](N)[C@H]1CC[C@H](C(=O)Nc2ccncc2)CC1 [Y-27632] | mostly result in death of cells on the exterior of the spheroid
2 | CC(C)[C@H](O)C(=O)N[C@@H](C)C(=O)N[C@@H]1C(=O)N(C)CCc2ccccc21 [LY-450139] | mostly result in death of cells on the exterior of the spheroid
3 | O=C(CSc1nc2c(c(=O)n1-c1ccccc1)SCC2)Nc1ccc(-c2ccccc2)cn1 [IWP-L6] | mostly result in death of cells on the exterior of the spheroid
